Remaining binding data for one molecule are collected here from patent EP2505659A1, “Methods for the identification of dioxygenase interacting molecules and for the purification of dioxygenase proteins” (CELLZOME AG, priority 2011, dated 2012).

What all share (experiment): Bead competition binding assay, immobilized compound A, K-562, HL-60 and Jurkat nuclear lysates
The target in one test is T1, ALKBH7 (Homo sapiens, UniProt Q9BT30).
T1 construct: capturing and identification of dioxygenases from nuclear lysates of three different cell lines; endogenous in cells; host or cells: K-562, HL-60 and Jurkat nuclear lysates
T1 sequence (Q9BT30 21-221): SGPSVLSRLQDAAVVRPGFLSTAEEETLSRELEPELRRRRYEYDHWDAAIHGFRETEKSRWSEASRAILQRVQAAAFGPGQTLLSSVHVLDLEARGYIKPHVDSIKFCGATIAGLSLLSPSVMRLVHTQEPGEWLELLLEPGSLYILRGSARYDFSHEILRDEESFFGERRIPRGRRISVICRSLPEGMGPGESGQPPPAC
As to conditions: 100 µM free compound A, read-out: Fold change versus DMSO control. From the text: (§1) K562 cells were also purchased from DSMZ (Braunschweig, Germany).
(§2) Table 5: Peptide elution off the LC system
(§3) Seventeen different dioxygenases were identified.

The next test has as its target T2, LEPRE1 (Homo sapiens, UniProt Q32P28).
T2 construct: capturing and identification of dioxygenases from nuclear protein extracts; endogenous in cells
T2 sequence (Q32P28 23-736): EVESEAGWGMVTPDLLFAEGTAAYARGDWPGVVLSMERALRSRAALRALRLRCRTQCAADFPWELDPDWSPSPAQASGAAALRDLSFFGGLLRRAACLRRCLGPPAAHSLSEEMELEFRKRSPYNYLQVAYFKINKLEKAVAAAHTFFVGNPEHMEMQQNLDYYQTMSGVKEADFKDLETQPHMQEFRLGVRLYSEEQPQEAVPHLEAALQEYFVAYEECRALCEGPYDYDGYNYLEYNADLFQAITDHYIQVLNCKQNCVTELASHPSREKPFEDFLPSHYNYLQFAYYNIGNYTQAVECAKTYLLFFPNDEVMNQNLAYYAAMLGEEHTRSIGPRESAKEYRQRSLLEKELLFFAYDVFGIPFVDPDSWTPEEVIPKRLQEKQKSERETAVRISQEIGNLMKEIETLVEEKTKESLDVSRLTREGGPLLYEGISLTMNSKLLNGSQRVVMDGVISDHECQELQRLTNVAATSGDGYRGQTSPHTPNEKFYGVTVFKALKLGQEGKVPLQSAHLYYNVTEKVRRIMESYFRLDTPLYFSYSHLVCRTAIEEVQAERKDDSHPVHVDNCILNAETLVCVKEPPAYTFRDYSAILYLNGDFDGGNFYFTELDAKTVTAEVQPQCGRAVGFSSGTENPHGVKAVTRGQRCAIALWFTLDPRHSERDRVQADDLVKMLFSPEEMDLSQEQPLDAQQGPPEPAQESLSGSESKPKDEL
As to conditions: 100 µM free compound A, read-out: Fold change versus DMSO control.
Source text: as §1, §2, §3

For another test, the target named is T3, OGFOD1 (Homo sapiens, UniProt Q8N543).
T3 construct: capturing and identification of dioxygenases from nuclear protein extracts; endogenous in cells
As to conditions: 100 µM free compound A, read-out: Fold change versus DMSO control.
Source text: as §1, §2, §3

The next test addresses T4, P4HA2 (Homo sapiens, UniProt O15460).
T4 construct: capturing and identification of dioxygenases from nuclear lysates of three different cell lines; endogenous in cells; host or cells: K-562, HL-60 and Jurkat nuclear lysates
As to conditions: 100 µM free compound A, read-out: Fold change versus DMSO control.
Source text: as §1, §2, §3

A further test addresses T5, C17ORF101 (Homo sapiens, UniProt Q6PK18).
T5 construct: capturing and identification of dioxygenases from nuclear protein extracts; endogenous in cells
T5 sequence (Q6PK18 1-331 isoform Q6PK18-2): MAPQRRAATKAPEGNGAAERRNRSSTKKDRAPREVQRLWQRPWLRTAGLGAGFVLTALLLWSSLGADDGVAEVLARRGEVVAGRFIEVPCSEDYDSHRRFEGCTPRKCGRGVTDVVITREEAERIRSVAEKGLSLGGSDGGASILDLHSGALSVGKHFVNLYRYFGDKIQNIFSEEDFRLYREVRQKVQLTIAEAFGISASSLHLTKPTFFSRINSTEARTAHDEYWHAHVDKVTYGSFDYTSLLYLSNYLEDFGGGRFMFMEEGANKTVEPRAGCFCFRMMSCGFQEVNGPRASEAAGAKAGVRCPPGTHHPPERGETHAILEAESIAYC
The conditions noted are these: read-out: Fold change versus DMSO control, C17ORF101; 100 µM free compound A; HL-60 nuclear lysate.
Source text: (§4) The proteins bound to the immobilized compound were eluted with detergent-containing buffer and separated on a SDS-polyacryamide gel. […] Table 4: Compound treatment and TMT-labeling of cell samples
(§5) Jurkat cells (ATCC number TIB-152) were either obtained from an external supplier (CIL SA, Mons, Belgium) or grown in one litre Spinner flasks (Integra Biosciences, #182101) in suspension in RPMI 1640 medium (Invitrogen, #21875-034) supplemented with 10% Fetal Bovine Serum (Invitrogen, #10270-106) at a density between 0.2 x 10^6 and 1.0 x 10^6 cells/ml. Cells were harvested by centrifugation, washed once with 1 x PBS buffer (Invitrogen, #14190-094) and cell pellets were frozen in liquid nitrogen and subsequently stored at -80°C.
(§6) Source of HL-60 cells: HL-60 cell line (DSMZ, Braunschweig, Germany; DSMZ number ACC3). K562 cells were also purchased from DSMZ (Braunschweig, Germany).
(§7) Extracts of nuclei were prepared according to the Dignam protocol (Dignam et al., 1983. Nucleic Acids Res. 11 (5):1475-89).
(§8) The TMT reagents are a set of multiplexed, amine-specific, stable isotope reagents that can label peptides on amino groups in up to six different biological samples enabling simultaneous identification and quantitation of peptides. The TMT reagents were used according to instructions provided by the manufacturer. The samples were resuspended in 10 µl 50 mM TEAB solution, pH 8.5 and 10 µl acetonitril were added. The TMT reagent was dissolved in acetonitrile to a final concentration of 24 mM and 10 µl of reagent solution were added to the sample. The labeling reaction was performed at room temperature for one hour on a horizontal shaker and stopped by adding 5 µl of 100 mM TEAB and 100 mM glycine in water. The labeled samples were then combined, dried in a vacuum centrifuge and resuspended in 60% 200mM TEAB / 40% acetonitril.
as §2
(§9) Search criteria varied depending on which mass spectrometer was used for the analysis.

A further test has as its target T6, P4HA1 (Homo sapiens, UniProt P13674).
T6 construct: endogenous in cells
As to conditions: read-out: Fold change versus DMSO control, P4HA1, 100 µM free compound A.
Source text: as §4, §5, §6, §7, §8, §2, §9

Structures are written as SMILES. Counter-ions that a name gives are not always drawn. Like-named read-outs stand apart in the source and are kept apart here.

T3 sequence (Q8N543 whole entry): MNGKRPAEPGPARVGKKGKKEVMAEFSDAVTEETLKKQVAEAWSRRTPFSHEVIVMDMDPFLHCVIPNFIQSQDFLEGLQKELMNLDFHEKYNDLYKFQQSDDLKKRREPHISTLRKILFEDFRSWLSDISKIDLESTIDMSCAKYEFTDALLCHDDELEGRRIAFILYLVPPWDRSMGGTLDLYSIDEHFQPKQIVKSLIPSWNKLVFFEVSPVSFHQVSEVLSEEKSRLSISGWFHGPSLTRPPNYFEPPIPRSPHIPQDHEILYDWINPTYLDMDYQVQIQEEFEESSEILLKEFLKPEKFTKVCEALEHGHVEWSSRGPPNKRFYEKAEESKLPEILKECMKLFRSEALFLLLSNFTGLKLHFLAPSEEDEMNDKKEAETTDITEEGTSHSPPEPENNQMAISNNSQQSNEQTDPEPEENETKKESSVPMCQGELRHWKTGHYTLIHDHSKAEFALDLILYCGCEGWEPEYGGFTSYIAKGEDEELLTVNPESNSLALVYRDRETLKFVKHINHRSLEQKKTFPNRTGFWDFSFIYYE
T4 sequence (O15460 22-535): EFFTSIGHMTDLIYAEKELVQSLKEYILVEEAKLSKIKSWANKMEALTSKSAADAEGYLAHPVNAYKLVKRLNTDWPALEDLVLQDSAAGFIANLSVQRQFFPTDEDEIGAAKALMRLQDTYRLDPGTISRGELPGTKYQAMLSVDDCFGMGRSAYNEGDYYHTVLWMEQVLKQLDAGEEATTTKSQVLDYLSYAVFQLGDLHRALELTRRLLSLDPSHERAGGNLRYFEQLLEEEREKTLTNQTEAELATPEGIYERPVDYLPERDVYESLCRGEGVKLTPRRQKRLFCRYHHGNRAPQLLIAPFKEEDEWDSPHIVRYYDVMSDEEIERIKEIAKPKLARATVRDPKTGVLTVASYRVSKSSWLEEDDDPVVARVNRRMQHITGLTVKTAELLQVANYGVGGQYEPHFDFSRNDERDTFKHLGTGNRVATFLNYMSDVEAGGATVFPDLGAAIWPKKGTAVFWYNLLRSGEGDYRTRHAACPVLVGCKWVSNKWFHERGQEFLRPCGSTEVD
T4 sequence (P07237 18-508 partner): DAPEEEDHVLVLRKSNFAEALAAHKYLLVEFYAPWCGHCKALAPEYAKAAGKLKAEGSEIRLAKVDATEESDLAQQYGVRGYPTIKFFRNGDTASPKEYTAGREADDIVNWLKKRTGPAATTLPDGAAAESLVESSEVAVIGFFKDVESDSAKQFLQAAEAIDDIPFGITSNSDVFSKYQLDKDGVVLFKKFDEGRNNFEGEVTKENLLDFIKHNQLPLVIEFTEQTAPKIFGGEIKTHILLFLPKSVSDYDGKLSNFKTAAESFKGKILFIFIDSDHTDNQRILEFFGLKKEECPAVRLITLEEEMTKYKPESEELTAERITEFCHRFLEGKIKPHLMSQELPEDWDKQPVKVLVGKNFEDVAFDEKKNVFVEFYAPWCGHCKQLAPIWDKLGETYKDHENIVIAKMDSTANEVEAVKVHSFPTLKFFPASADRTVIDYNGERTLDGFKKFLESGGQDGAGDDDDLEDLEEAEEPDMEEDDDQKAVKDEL
T6 sequence (P13674 18-534): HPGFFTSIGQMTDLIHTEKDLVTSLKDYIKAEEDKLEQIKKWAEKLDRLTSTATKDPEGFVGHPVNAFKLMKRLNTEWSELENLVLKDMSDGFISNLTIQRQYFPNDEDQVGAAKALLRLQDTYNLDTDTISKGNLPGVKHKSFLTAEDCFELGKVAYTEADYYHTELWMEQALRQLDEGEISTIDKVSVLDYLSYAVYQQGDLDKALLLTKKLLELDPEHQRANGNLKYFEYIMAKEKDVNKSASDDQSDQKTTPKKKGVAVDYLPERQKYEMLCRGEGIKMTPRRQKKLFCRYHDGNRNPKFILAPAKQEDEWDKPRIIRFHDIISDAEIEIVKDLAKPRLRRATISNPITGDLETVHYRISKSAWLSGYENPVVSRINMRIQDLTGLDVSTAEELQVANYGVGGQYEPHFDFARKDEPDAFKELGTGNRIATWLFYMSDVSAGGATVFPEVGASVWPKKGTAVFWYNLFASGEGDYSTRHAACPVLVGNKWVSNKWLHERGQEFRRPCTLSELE
T6 sequence (P07237 18-508 partner): as the sequence (P07237 18-508 partner) above

For `O=C(O)CNC(=O)C1C(=O)OC2(CCNCC2)OC1=O` [compound A, 2-(2,4-dioxo-1,5-dioxa-9-azaspiro[5.5]undecane-3-carboxamido)acetic acid hydrochloride], the remaining binding at 100 µM on ALKBH7 (HL-60 nuclear lysate) was 82%; at ALKBH7 (Jurkat nuclear lysate), 55%; at ALKBH7 (K-562 nuclear lysate) it was 54%; at LEPRE1 (HL-60 nuclear lysate), 126%; at LEPRE1 (Jurkat nuclear lysate) it was 90%; on LEPRE1 (K-562 nuclear lysate) it was 100%. Besides, the remaining binding at 100 µM on OGFOD1 (HL-60 nuclear lysate) was found to be 50%; on OGFOD1 (Jurkat nuclear lysate), 30%; at OGFOD1 (K-562 nuclear lysate), 19%; on P4HA2 (HL-60 nuclear lysate) it was 279%; at P4HA2 (Jurkat nuclear lysate) it was 136%; on P4HA2 (K-562 nuclear lysate) it was 28%. In addition, the values for the remaining binding at 100 µM on C17ORF101, on P4HA1 (HL-60 nuclear lysate) and on P4HA1 (K-562 nuclear lysate) were 67%, 25% and 31%, respectively.
